GI50 and TGI data for 20 compounds are collected here from PubChem BioAssay (NCI).

The structures appear in SMILES notation.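 A five-concentration, 48-hour dose response in 96-well plates underlies each endpoint, interpolated linearly between surrounding concentrations. The concentration for 50% growth inhibition is given as GI50. At the TGI there is no net growth.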

The subject of one experiment is SK-MEL-28 melanoma. Briefly: NCI-60 cell line screen, 48 h.
As to `CCN(CC)CC(C)Nc1ccc([N+](=O)[O-])c2sc3ccccc3c(=O)c12` (centres undefined), the GI50 is 1.95 µM and the TGI was determined as 4.56 µM.
With `N=C(N)c1ccc(-c2ccc(-c3cc(Cl)cc(Cl)c3)o2)nc1`, the GI50 was 1.8 µM and the TGI came to 3.59 µM.
In turn, `CCOC(=O)CSc1nc(N)c2c(-c3ccc(OC)c(OC)c3)c3c(nc2n1)CCCC3` came in with a TGI above 100 µM.
Compound `CNC(=O)OC(C)CN1c2ccccc2Sc2ccc(Cl)cc21` (centres undefined) showed a TGI above 10 µM.
Take `O=C(CCCCCCC(=O)Nc1ccc(N(CCCl)CCCl)cc1)NO`: the GI50 is 3.35 µM and the TGI was determined as 16.3 µM.
For `CN1CC[C@@]2(c3cccc(O)c3)CC(=O)/C(=C/c3ccccc3)[C@H]1C2`, the TGI was 29 µM.
Still for that read-out and setting: next, `O=C(N/N=C(/c1ccccc1)C(F)(F)F)c1ccncc1`: above 100 µM; `ONc1ncnc2nc[nH]c12`: above 100 µM.
For the compound `CCCc1[nH]c(SCCCCCCCCSc2nc(-c3ccc(F)cc3)c(CCC)[nH]2)nc1-c1ccc(F)cc1`, the TGI was above 100 µM.
In the case of `COc1ccc2nc(-c3ccc(-c4noc(-c5cc(OC)c(OC)c(OC)c5)n4)cc3)[nH]c2c1`, the GI50 was 9.59 µM and the TGI stood at 27 µM.
Regarding `COc1ccc(/C(=C2/O[C@@H]([C@H]3COC(C)(C)O3)[C@H]3OC(C)(C)O[C@@H]23)c2cc(OC)c(OC)c(OC)c2)cc1O`, the GI50 is 10.6 µM and the TGI is above 100 µM.
The compound `Cn1c(=O)c2c(nc(-n3nc(-c4ccc(Cl)cc4)cc3N)n2C)n(C)c1=O` came in with a TGI above 100 µM.
Still for that read-out and setting: then `N=c1c2c(C(N)=O)cn(C3OC(CO)C(O)C3O)c2ncn1O` (centres undefined), with 2.3 µM; and `CCS(=O)(=O)Nc1ccc(Nc2c3ccccc3nc3ccccc23)c(OC)c1`, with 15.4 µM.
On the same count and under the same terms, next, `Cc1nc(N)nc(N)c1-c1ccc(Cl)c(Cl)c1`: 47.1 µM; `Cc1cccc2nc3c(C(=O)NCCN(C)C)cccc3cc12`: 3.62 µM.
Still for that read-out and setting: next, `C[C@]12CC[C@@H]3c4ccc(OP(=O)(O)O)cc4CC[C@H]3[C@@H]1CCC2=O`: above 100 µM; `CCSCCC(N)C(=O)O` (centres undefined): above 100 µM.
In the case of `COc1ccc2nc(N/N=C/C(C)=N/Nc3cc(C)c4cc(OC)ccc4n3)cc(C)c2c1`, the TGI stood at 74.5 µM.

A further experiment deals with IGROV1 ovarian. Briefly: NCI-60 cell line screen, 48 h.
As to `CCN(CC)CC(C)Nc1ccc([N+](=O)[O-])c2sc3ccccc3c(=O)c12` (centres undefined), the GI50 is 1.08 µM and the TGI was 4.18 µM.
As to `N=C(N)c1ccc(-c2ccc(-c3cc(Cl)cc(Cl)c3)o2)nc1`, the GI50 was 2.09 µM and the TGI turned out to be 3.79 µM.
Compound `CCOC(=O)CSc1nc(N)c2c(-c3ccc(OC)c(OC)c3)c3c(nc2n1)CCCC3` yielded a TGI above 100 µM.
With `CNC(=O)OC(C)CN1c2ccccc2Sc2ccc(Cl)cc21` (centres undefined), the TGI was above 10 µM.
As to `O=C(CCCCCCC(=O)Nc1ccc(N(CCCl)CCCl)cc1)NO`, the GI50 was 2.51 µM and the TGI is 21.2 µM.
In turn, `CN1CC[C@@]2(c3cccc(O)c3)CC(=O)/C(=C/c3ccccc3)[C@H]1C2` gave a TGI of 36.2 µM.
Same read-out and setting: then `O=C(N/N=C(/c1ccccc1)C(F)(F)F)c1ccncc1`, with above 100 µM.
Same read-out and setting: next, `ONc1ncnc2nc[nH]c12`: above 100 µM; `CCCc1[nH]c(SCCCCCCCCSc2nc(-c3ccc(F)cc3)c(CCC)[nH]2)nc1-c1ccc(F)cc1`: above 100 µM.
The compound `O=S(=O)(O)c1ccc2cccc(N=Nc3c(O)ccc4ccccc34)c2c1` gave a TGI above 100 µM.
Consider `COc1ccc2nc(-c3ccc(-c4noc(-c5cc(OC)c(OC)c(OC)c5)n4)cc3)[nH]c2c1`, for which the GI50 is 26.3 µM and the TGI amounted to 69.1 µM.
Taken in the same sequence, the figures for `COc1ccc(/C(=C2/O[C@@H]([C@H]3COC(C)(C)O3)[C@H]3OC(C)(C)O[C@@H]23)c2cc(OC)c(OC)c(OC)c2)cc1O` were 45.1 µM and above 100 µM.
On to `Cn1c(=O)c2c(nc(-n3nc(-c4ccc(Cl)cc4)cc3N)n2C)n(C)c1=O`, for which the TGI was above 100 µM.
Regarding `N=c1c2c(C(N)=O)cn(C3OC(CO)C(O)C3O)c2ncn1O` (centres undefined), the TGI was above 100 µM.
The same measure, in the same setting: then `CCS(=O)(=O)Nc1ccc(Nc2c3ccccc3nc3ccccc23)c(OC)c1`, with 22.4 µM; and `Cc1nc(N)nc(N)c1-c1ccc(Cl)c(Cl)c1`, with above 100 µM.
The same measure, in the same setting: then `Cc1cccc2nc3c(C(=O)NCCN(C)C)cccc3cc12`, with 7.11 µM; and `C[C@]12CC[C@@H]3c4ccc(OP(=O)(O)O)cc4CC[C@H]3[C@@H]1CCC2=O`, with above 100 µM; and `CCSCCC(N)C(=O)O` (centres undefined), with above 100 µM.
Same read-out and setting: next, `COc1ccc2nc(N/N=C/C(C)=N/Nc3cc(C)c4cc(OC)ccc4n3)cc(C)c2c1`: 47.1 µM.

The next experiment relates to HCT-15 colon. Briefly: NCI-60 cell line screen, 48 h.
As for `CCN(CC)CC(C)Nc1ccc([N+](=O)[O-])c2sc3ccccc3c(=O)c12` (centres undefined), the GI50 was 1.6 µM and the TGI is 23.8 µM.
Consider `N=C(N)c1ccc(-c2ccc(-c3cc(Cl)cc(Cl)c3)o2)nc1`, for which the GI50 was 1.8 µM and the TGI was 3.46 µM.
`CCOC(=O)CSc1nc(N)c2c(-c3ccc(OC)c(OC)c3)c3c(nc2n1)CCCC3` gave a TGI above 100 µM.
Still for that read-out and setting: then `CNC(=O)OC(C)CN1c2ccccc2Sc2ccc(Cl)cc21` (centres undefined), with above 10 µM.
Take `O=C(CCCCCCC(=O)Nc1ccc(N(CCCl)CCCl)cc1)NO`: the GI50 was 18.9 µM and the TGI was above 100 µM.
For `CN1CC[C@@]2(c3cccc(O)c3)CC(=O)/C(=C/c3ccccc3)[C@H]1C2`, the TGI amounted to 41.2 µM.
The compound `O=C(N/N=C(/c1ccccc1)C(F)(F)F)c1ccncc1` registered a TGI above 100 µM.
